Results on one molecule are retold here after patent publication US4618681A, “Aryl substituted 1H-4,5-dihydro-1,2,3-triazoles as anticonvulsants” (priority 1984, dated 1986).

The nature of the assay: animal or person. Conditions: Mus musculus, sc, read-out: sc CD97 of bicuculline.

Procedure: The profile of anticonvulsant activity for each substance was established by five tests: one electrical and four chemical. The electrical test employed was the maximal electroshock seizure pattern test. […] Except for the sc Strych Test, these tests measure the ability of anticonvulsants to afford complete protection against threshold seizures induced by the subcutaneous injection of the CD97 of the convulsant agent.
All convulsants were administered subcutaneously into a loose fold of skin on the back of the neck in a volume of 0.01 ml/g body weight in mice; Metrazol was injected in a volume of 0.02 ml/10 g body weight in rats. The convulsant drugs were administered at the previously determined time of peak anticonvulsant action of the drug under study. […] Except for strychnine, absence of a five-second episode of clonic spasms (threshold seizure) was taken as protection. In the case of strychnine, complete abolition of the hindleg tonic extension was taken as protection.

On to `CN1CCc2cc3c(cc2[C@H]1[C@@H]1OC(=O)c2c1ccc1c2OCO1)OCO3` [bicuculline], for which the ED97 was 2.7 mg/kg.
